Laboratory results as given in article PMC4263429 (Biochemistry, 2014).

How the values were obtained:
[1] = test system: type 2 dehydratase from E. coli; settings: cited from earlier work
[2] = test system: type 1 dehydratase from P. asaccharolyticus; settings: cited from earlier work
[3] = test system: N[C@@H](CO)C(=O)O; experiment: purified protein, by the assay type

Compound	type of inhibition [1]	type of inhibition [2]	kcat/Km [3]
N[C@H](CO)C(=O)O [D-serine]	competitive inhibitors		
N[C@@H](CS)C(=O)O [L-cysteine]	competitive inhibitors	competitive inhibitor	
(Legionella pneumophila str. Lens)			165000 ± 8000 M⁻¹ s⁻¹
